For one compound, Ki results are on record in BindingDB's records for doi:10.1016/s0960-894x(00)00033-0 (Albany Molecular Research, 2000).

Several values for one entry are separate records, joined by “and”; a condition that tells them apart may be missing. Identical values can stand only once. Counter-ions that a name gives are not always drawn.

Experiment [1] in a line: Binding affinity against Opioid receptor delta 1 of calf cortex using […] as radioligand.
A short description of experiment [2]: Binding affinity against Opioid receptor kappa 1 of calf cortex using [3H]-U-69,593 as radioligand.
Assay in experiment [3]: as above
This is another data set of the same source.

The Ki is the dissociation constant of the complex between target and ligand, obtained from inhibition or displacement. Read a low Ki as a stronger hold on the target.

As to `COCCC1CC2CN3CCc4c([nH]c5ccccc45)C(C(=O)OC)(C2)C13` (stereo not drawn) [(-)-18-Methoxycoronaridine hydrochloride], the Ki in experiment [1] is 3.5 µM; in experiment [2] it was 4.8 µM; in experiment [3], 5.5 µM and 5.1 µM.
